Test results taken from US10030002B2, “Coumarin derivative for detection of cysteine and process for the synthesis thereof” (COUNCIL OF SCIENTIFIC & INDUSTRIAL RESEARCH, priority 2015, dated 2018).
Each block holds one molecule with its values, some of them ahead of it.

Experiments:
[1] = UV-Vis absorption response of probe L to amino acids and Cys
Excerpt: With the addition of Cys (0-100 equiv.), absorption band at 468 nm gradually decreases and a new band appeared at 438 nm with a visible colour change from red to green (FIG. 1B). A hypsochromic shift (˜30 nm) with three well defined isosbestic points are observed at 445 nm, 372 nm and 325 nm. This Cys-induced hypsochromic shift indicates the suppression of ICT process from donor diethylamino unit to acceptor nitroalkene unit.
(§1) 5×10^−3M stock solution of 7-(diethylamino)-3-((E)-4-((E)-2-nitrovinyl)styryl)-2H-chromen-2-one was prepared in CH3CN and the same solution was used for all the studies after appropriate dilution. Unless and otherwise mentioned, 10 mM and pH 7 solution of aq. HEPES buffer was used for all spectroscopic studies. All amino acid solutions of 1.0×10^−1M were prepared in HEPES buffer (pH 7). For spectroscopic measurements, stock solution of the probe was further diluted by using HEPES:CH3CN (9:1) mixture and the effective final concentration was made as 10 μM. All luminescence measurements were done using λext=445 nm with an emission slit width of 2 nm. The fluorescence quantum yield was determined according to literature method using fluorescein (in 0.1M NaOH) as reference (Φf=0.92).

[2] = Fluorescence response of probe L to amino acids and Cys in HEPES:CH3CN (9:1), pH 7
Excerpt: In the absence of Cys, probe L is almost non fluorescent (Φf=0.06), upon addition of Cys (0-1000 equiv.), fluorescence intensity is increased remarkably up to 7 fold with an emission band centered at 524 nm (λExt=445 nm) (FIG. 2B). […] The quantum yield of probe after the addition of Cys increases (Φf=0.32) with respect to fluorescein (Φf=0.92). The fluorescence turn on response of the probe upon addition of Cys is due to the formation of 1,4 conjugate addition product, which blocks the PET quenching by nitro olefin and also ICT process from diethylamino to nitro olefin unit. The results were in well agreement with our proposed hypothesis. […] The fluorescence intensities of the probe at 524 nm show a good linear relationship with the concentration of Cys between 0 to 1000 μM. The detection limit of Cys is determined as 23.65 nM (23.65×10^−9) based on S/N=3. (FIG. 8)
Cys being a low pKa protein thiol, at neutral pH, the thiolate/thiol ratio is higher for Cys than for Hcy and GSH, which results in greater reactivity of Cys with the probe. This could be the reason for getting selectivity to Cys over Hcy and GSH at pH 7. Also pH 7, being neutral, much suitable for biological studies.
as §1

[3] = Time dependent fluorescence response of probe L with biothiols
Protocol: Time dependent fluorescence response of probe L or compound of Formula (L) is carried out with 200 equiv of Cys. […] (FIG. 4).

amino acylase-1 = experiment: Detection of Cys generated enzymatically from NAC; assay type: biochemical
Excerpt: In another preferred embodiment, the detection of Cys generated in an enzymatic reaction is studied. N-acetyl-cysteine (NAC) is employed as substrate and amino acylase-1 as an enzyme. N-acetyl-cysteine, an acetylated form of Cys, a well known pro-drug used as a cysteine supplement in treatment of glutathione replenishment, acetaminophen over dose, HIV patients etc. NAC supplement releases the Cys inside the cells. […] Amino acylases are a class of enzymes which specifically hydrolyses the N-acetylated amino acids to release the free amino acids. There are many amino acylases known for de-acetylation of acetylated amino acids, among them Amino acylase-1 is well known for its ability to hydrolyse acetylated cysteine.
Cipla made effervescent tablets of N-Acetyl-Cysteine were purchased from commercially available sources. Based on the quantity of NAC present in the tablet, 1.0×10^−1M tablet solution was prepared in 10 mM aq.
HEPES buffer solution (pH7). Enzyme solution was prepared according to the requirement by dissolving 1 mg/ml in 10 mM aq.HEPES buffer solution (pH7). A fixed concentration of NAC (200 equiv.) was added to the 10 μM probe in HEPES:CH3CN (9:1, v/v). Since 1 mg of solid enzyme contains 3301 units of protein and 1 unit can hydrolyse 1 μM of substrate, accordingly enzyme concentration was varied with respect to the substrate concentration.
10 μM of 7-(diethylamino)-3-((E)-4-((E)-2-nitrovinyl)styryl)-2H-chromen-2-one is treated with 200 equiv. of NAC and different concentration of enzyme (0-2000 units) was added and the resulting solution was incubated at 37° C. for the time period ranging from 45 to 50 mins. Initially there is no fluorescence because NAC cannot bind to probe and fluorescence is turned on gradually with time, which indicates the hydrolysis of NAC by Amino acylase-1 to release of Cys. Fluorescence intensity increases with the increase in concentration of enzyme (0 to 2000 units) as more and more amounts of Cys was released from NAC by the enzymatic activity (FIG. 6). […]

[4] = Comparison of Formula (L) with prior art coumarin derivatives
Excerpt: In still yet another embodiment, the present invention provides the comparison study of said coumarin derivatives of Formula (L) with previous prior arts coumarin derivative.

[5] = TLC test strips coated with probe L
Protocol: The same strategy is further extended to detect Cys in blood plasma and the Cys released in an enzymatic reaction as well. […] The same methodology is further extended to detect the enzymatically generated Cys from NAC.
TLC test strips were prepared by coating 5 μM of 7-(diethylamino)-3-((E)-4-((E)-2-nitrovinyl)styryl)-2H-chromen-2-one solution in acetonitrile on silica TLC plates. 5 μl of Cys (1.0×10^−1M) in 10 mM aq.HEPES buffer (pH7) was added on it, dried and the visual as well as fluorescence colour changes were observed after 5 min. The same was repeated for Hcy and GSH as well. To detect Cys in blood plasma, 20 μl of blood plasma was diluted (10 μl plasma+10 μl buffer) was added on probe quoted TLC plate. Same methodology was repeated for enzymatic reaction on TLC plate by using 10 μl of NAC and amino acylase-1 enzyme.

whey protein = experiment: Detection of cysteine in whey protein from raw milk; settings: L 10 μM, whey 500 μl, NAC 0-500 μl
Excerpt: Suitability of this reagent for specific recognition and estimation of Cys-residues present in natural milk proteins was also explored. For this study whey protein was isolated from milk. Initially some fluorescence was observed, which is due to the presence of free Cys. Then NAC tablets are used to reduce the disulfides present in whey. […] So, this reagent could be used as protein labeling agent to specifically label the Cys present in proteins.
Raw milk was subjected to fermentation and the liquid whey which was settled above after fermentation process was separated by filtration. A varying amount of whey ranging from 500 μl was added to Probe L (7-(diethylamino)-3-((E)-4-((E)-2-nitrovinyl)styryl)-2H-chromen-2-one) (10 μM) in HEPES:ACN at pH 7. Varying concentrations of N-Acetyl Cysteine (0-500 μl) was added to each of the above solution in order to hydrolyse the bound Cysteine present in whey protein (NAC solution was prepared by dissolving NAC tablets in buffer as mentioned in the enzymatic study). Luminescence changes were recorded after 45-50 minutes of incubation at room temperature. The remaining derivatives of probe L may give similar kind of response.

[6] = cited from earlier work
[7] = thiol pKa; cited from earlier work
[8] = HEPES:CH3CN (9:1), pH 7, with respect to fluorescein

- fluorescence quantum yield (Φf) after the addition of Cys [2, 8]: 0.32
- fluorescence quantum yield (Φf) in the absence of Cys [2, 8]: 0.06
- reaction time at room temperature (amino acylase-1; room temperature): more than 90 min
Structure (SMILES): CCN(CC)c1ccc2cc(/C=C/c3ccc(/C=C/[N+](=O)[O-])cc3)c(=O)oc2c1 [L, 7-(diethylamino)-3-((E)-4-((E)-2-nitrovinyl)styryl)-2H-chromen-2-one]
- hypsochromic shift of the absorption band upon addition of Cys ([1]; Cys 0-100 equiv., 468 nm to 438 nm): ~30 nm
- absorption response to amino acids (selectivity) ([1]; L 10 μM, amino acids 100 equiv., pH 7): Only Cys gives an observable change in absorption spectra
- linear range of fluorescence intensity at 524 nm with concentration of Cys [2]: 0 to 1000 µM
- pH dependent selectivity ([2]; Cys, Hcy and GSH with increasing pH): selectivity of probe to Cys at pH 7
- fluorescence intensity increase upon addition of Cys ([2]; L 10 μM, Cys 0-1000 equiv., emission 524 nm, λExt=445 nm): up to 7 fold
- fluorescence response to amino acids (selectivity) ([2]; L 10 μM, amino acids 200 equiv., pH 7): Only Cys gives an enhancement in the fluorescence
- detection limit of Cys ([2]; based on S/N=3, fluorescence at 524 nm): 23.65 nM
- fluorescence response to Hcy and GSH ([2]; identical conditions, pH 7): does not give any significant changes in fluorescence
- time to completion of the reaction with Cys ([3]; 200 equiv of Cys): 25 min
- time dependent fluorescence with Hcy and GSH ([3]; 200 equiv. each): no significant changes in the fluorescence observed
- fluorescence after addition of aminoacylase-1 (amino acylase-1; L 10 μM, NAC 200 equiv., enzyme 0-2000 units, 37° C.): fluorescent intensity gradually increases
- emission at 520 nm with NAC in absence of aminoacylase-1 (amino acylase-1; L 10 μM, NAC 200 equiv., pH 7): no change in emission intensity was observed
- sensitivity of Cys detection (comparison) [4]: in nanomolar range.
- response of probe coated TLC plates to Hcy and GSH [5]: does not give any observable visible as well as fluorescence changes
- colour change of probe coated TLC plates with Cys ([5]; 5 μM L on silica TLC, 365 nm UV lamp): changes from red to yellowish green
- fluorescence with whey and NAC (whey protein): fluorescence intensity of L gradually increases

Structure (SMILES): CCN(CC)c1ccc2cc(/C=C/[N+](=O)[O-])c(=O)oc2c1
- sensitivity or specificity of prior art probe (comparison) [6]: Not specific to Cys

Structure (SMILES): N[C@@H](CCS)C(=O)O [Hcy, Homocysteine]
- pKa [7]: 10.0

Structure (SMILES): N[C@@H](CCC(=O)N[C@@H](CS)C(=O)NCC(=O)O)C(=O)O [GSH, Glutathione]
- pKa [7]: 9.5

Structure (SMILES): O=C(/C=C/c1ccc2ccccc2n1)c1cc2cc3c4c(c2oc1=O)CCCN4CCC3
- sensitivity or specificity of prior art probe (comparison) [6]: Detect only micromolar range
